Data as given in article PMC11605156, “Triterpenoids from Ganoderma lucidum inhibit cytochrome P450 enzymes interfering with the metabolic process of specific clinical drugs” (Frontiers in Pharmacology, 2024).

Assays:
CYP1A2 = target: T1, CYP1A2 (Homo sapiens, UniProt P05177); assay: CYP1A2 inhibition, probe/drug metabolism in human liver microsomes (LC-MS/MS); settings: for activity at 30 min: Residual activity (%) CYP1A2, HLM 0.5 mg/mL; for activity at 30 min / Residual activity (%) CYP1A2: phenacetin 40 μM, 30 min; for Residual activity (%) CYP1A2: HLM 0.5 mg/mL
T1 sequence (P05177 1-516): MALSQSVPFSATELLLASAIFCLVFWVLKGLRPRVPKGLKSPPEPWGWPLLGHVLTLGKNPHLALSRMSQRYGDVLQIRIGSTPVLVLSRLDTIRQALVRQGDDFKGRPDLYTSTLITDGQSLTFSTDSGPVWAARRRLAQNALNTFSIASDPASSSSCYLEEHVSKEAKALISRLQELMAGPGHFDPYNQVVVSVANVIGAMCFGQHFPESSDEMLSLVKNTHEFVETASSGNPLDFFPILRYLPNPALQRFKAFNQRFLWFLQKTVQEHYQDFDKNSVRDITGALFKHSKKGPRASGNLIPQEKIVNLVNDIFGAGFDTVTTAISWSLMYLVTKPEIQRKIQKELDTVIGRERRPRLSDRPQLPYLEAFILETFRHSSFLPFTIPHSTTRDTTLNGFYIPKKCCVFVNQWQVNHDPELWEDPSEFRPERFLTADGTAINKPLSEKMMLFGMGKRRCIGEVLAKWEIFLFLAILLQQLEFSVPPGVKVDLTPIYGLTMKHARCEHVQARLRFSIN
Method: (§1) The total volume of the in vitro metabolic incubation system is 200 μL. The probe substrate concentration in the system is shown in Supplementary Table S1. […] The reaction sample was preheated in a constant temperature mixer at 37°C. Then NADP^+ was added to the system to initiate the reaction. The reaction time is 30 min, and 100 μL acetonitrile will be added on time to quickly terminate the reaction, followed by centrifugation at 4°C and 20,000 g for 20 min. The supernatant was analyzed using liquid chromatography tandem mass spectrometry (LC-MS/MS), and the activity of CYP enzymes was evaluated by the generation of probe metabolites. The mass spectrometry information of probe substrates is shown in Supplementary Table S3.
(§2) The isolated triterpenoids (1–66) were used to establish a compounds library. The inhibitory effects of 66 triterpenoids from G. lucidum on seven subtypes of CYP enzymes (CYP1A2, 2A6, 2D6, 2B6, 2C9, 2C19, 3A4) were evaluated followed the above-mentioned experimental procedures.
(§3) For 16 clinical drugs metabolized by CYP enzymes, potential DDI studies were conducted on triterpenoids (6, 25) of G. lucidum, and IC50 values were measured.
(§4) Clinical drugs: Phenacetin, melatonin, clozapine and riluzole are metabolized by CYP1A2. Bupropion, artemisinin, efavirenz and sertraline are metabolized by CYP2B6. Diclofenac, valsartan, glimepiride and glibenclamide are metabolized by CYP2C9. Midazolam, imatinib, simvastatin and diltiazem are metabolized by CYP3A4.
(§5) Table S1. The information of probes for CYPs activity assay
(§6) Table S2. Information of clinical drugs

CYP2D6 = CYP2D6 (Homo sapiens, UniProt P10635); assay: CYP2D6 inhibition, dextromethorphan probe in human liver microsomes; settings: for activity at 30 min: human, human liver microsomes, pH 7.4, probe dextromethorphan 5 μM, Residual activity (%) CYP2D6, HLM 0.5 mg/mL; for Residual activity (%) CYP2D6: HLM 0.5 mg/mL, dextromethorphan 5 μM, 30 min
Method: as §1, §2, §5

CYP3A4 = CYP3A4 (Homo sapiens, UniProt P08684); assay: CYP3A4 inhibition, probe/drug metabolism in human liver microsomes; settings: human, human liver microsomes, pH 7.4, probe midazolam 5 μM, Residual activity (%) CYP3A4, HLM 0.5 mg/mL, midazolam 5 μM, 30 min
Method: as §1, §2, §3, §4, §5, §6

CYP2A6 = target: T2, CYP2A6 (Homo sapiens, UniProt P11509); assay: CYP2A6 inhibition, coumarin probe in human liver microsomes; settings: for activity at 30 min: human, human liver microsomes, pH 7.4, probe coumarin 2 μM, Residual activity (%) CYP2A6, HLM 0.5 mg/mL
T2 sequence (P11509 1-494): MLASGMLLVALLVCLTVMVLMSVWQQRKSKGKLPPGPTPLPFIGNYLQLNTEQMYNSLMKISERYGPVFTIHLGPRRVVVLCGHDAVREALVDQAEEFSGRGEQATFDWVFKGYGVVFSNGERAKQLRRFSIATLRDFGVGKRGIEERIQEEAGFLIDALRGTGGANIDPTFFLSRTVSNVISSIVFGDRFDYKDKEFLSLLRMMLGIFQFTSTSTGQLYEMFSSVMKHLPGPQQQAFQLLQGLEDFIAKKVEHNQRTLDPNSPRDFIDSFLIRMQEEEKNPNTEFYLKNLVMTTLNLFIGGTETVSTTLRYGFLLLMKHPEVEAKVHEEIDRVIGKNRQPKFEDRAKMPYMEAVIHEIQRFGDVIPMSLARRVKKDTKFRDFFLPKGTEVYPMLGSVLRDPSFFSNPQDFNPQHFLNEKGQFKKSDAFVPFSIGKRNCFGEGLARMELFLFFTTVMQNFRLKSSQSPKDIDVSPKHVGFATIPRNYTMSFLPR
Method: as §1, §2, §5

CYP2B6 = target: T3, CYP2B6 (Homo sapiens, UniProt P20813); assay: CYP2B6 inhibition, probe/drug metabolism in human liver microsomes; settings: bupropion 75 μM, 30 min; for activity at 30 min: human, human liver microsomes, pH 7.4, probe bupropion 75 μM, Residual activity (%) CYP2B6, HLM 0.5 mg/mL
T3 sequence (P20813 1-491): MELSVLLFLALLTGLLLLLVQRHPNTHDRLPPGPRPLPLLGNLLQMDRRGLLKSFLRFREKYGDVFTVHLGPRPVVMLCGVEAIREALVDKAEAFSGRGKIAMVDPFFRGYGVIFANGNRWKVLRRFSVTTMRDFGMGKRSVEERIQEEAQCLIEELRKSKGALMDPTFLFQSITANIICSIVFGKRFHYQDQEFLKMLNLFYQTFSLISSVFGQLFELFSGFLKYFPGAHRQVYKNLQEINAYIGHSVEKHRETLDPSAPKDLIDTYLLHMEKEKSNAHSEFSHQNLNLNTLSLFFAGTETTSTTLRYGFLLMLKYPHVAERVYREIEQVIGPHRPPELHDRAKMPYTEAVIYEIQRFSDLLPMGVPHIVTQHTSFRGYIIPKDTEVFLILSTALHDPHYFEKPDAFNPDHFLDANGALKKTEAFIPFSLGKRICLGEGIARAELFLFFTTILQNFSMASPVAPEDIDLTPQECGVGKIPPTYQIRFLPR
Method: as §1, §2, §3, §4, §5, §6

CYP2C9 = CYP2C9 (Homo sapiens, UniProt P11712); assay: CYP2C9 inhibition, probe/drug metabolism in human liver microsomes; settings: diclofenac 4 μM, 30 min; for activity at 30 min: human, human liver microsomes, pH 7.4, probe diclofenac 4 μM, Residual activity (%) CYP2C9, HLM 0.5 mg/mL
Method: as §1, §2, §3, §4, §5, §6

CYP2C19 = CYP2C19 (Homo sapiens, UniProt P33261); assay: CYP2C19 inhibition, S-mephenytoin probe in human liver microsomes; settings: S-mephenytoin 50 μM, 30 min; for activity at 30 min: human, human liver microsomes, pH 7.4, probe S-mephenytoin 50 μM, Residual activity (%) CYP2C19, HLM 0.5 mg/mL
Method: as §1, §2, §5

[1] = Pharmacokinetics of probe drugs in rats with or without dichloromethane extract; settings: rat
Method: SD rats (Male, weighing 220 g ± 20 g) were divided into a dichloromethane administration group and a control group with 6 rats in each group. Both groups were given probe substrate drugs by gavage. […] 200 μL blood samples were taken from the rat jugular vein at 0.167, 0.333, 0.5, 0.75, 1, 2, 3, 4, 6, 8, 10, and 12 h after the administration of the probe substrate. After precipitation of proteins by with 600 μL acetonitrile via centrifugation […] at 4°C at 3,500 rpm for 10 min. The supernatant was detected using liquid chromatography-tandem mass spectrometry (LC-MS/MS). The mass spectrometry information of the probe drug is shown in Supplementary Table S3. Animal experiments in this study were approved by the Animal Ethics Committee of the Dalian Medical University.

[2] = IC50 against CYP 1A2, substrate phenacetin 40 μM, HLM
[3] = human, human liver microsomes, pH 7.4, probe phenacetin 40 μM
[4] = gavage, drug alone (control group), n = 6

Chain of CYP2C19 (P33261 whole entry): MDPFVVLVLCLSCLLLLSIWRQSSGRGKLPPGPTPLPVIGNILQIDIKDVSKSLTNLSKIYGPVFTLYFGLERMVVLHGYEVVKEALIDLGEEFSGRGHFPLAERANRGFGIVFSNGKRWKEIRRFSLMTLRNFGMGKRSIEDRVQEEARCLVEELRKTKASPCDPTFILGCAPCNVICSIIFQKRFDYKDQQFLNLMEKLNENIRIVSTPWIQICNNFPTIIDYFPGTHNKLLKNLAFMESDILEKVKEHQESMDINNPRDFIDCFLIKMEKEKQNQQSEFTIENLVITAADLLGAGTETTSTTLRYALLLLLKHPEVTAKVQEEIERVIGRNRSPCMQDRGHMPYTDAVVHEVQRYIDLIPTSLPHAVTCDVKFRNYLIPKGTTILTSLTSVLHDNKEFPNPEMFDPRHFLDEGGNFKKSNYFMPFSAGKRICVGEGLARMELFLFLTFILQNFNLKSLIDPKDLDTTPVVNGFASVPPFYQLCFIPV
Chain of CYP3A4 (P08684 whole entry): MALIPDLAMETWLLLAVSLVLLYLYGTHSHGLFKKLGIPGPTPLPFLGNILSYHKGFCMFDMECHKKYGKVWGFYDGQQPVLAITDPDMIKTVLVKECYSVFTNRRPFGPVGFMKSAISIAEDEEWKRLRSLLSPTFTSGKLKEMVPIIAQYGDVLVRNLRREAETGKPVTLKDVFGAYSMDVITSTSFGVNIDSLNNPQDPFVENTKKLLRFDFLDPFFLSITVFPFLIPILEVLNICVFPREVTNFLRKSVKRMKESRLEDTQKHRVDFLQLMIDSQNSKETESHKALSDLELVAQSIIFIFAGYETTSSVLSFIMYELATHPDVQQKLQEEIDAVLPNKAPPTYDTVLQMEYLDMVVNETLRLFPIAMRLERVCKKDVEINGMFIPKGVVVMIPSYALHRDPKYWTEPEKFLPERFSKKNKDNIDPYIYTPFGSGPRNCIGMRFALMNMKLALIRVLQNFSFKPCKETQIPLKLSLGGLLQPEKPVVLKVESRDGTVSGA
Chain of CYP2D6 (P10635 whole entry): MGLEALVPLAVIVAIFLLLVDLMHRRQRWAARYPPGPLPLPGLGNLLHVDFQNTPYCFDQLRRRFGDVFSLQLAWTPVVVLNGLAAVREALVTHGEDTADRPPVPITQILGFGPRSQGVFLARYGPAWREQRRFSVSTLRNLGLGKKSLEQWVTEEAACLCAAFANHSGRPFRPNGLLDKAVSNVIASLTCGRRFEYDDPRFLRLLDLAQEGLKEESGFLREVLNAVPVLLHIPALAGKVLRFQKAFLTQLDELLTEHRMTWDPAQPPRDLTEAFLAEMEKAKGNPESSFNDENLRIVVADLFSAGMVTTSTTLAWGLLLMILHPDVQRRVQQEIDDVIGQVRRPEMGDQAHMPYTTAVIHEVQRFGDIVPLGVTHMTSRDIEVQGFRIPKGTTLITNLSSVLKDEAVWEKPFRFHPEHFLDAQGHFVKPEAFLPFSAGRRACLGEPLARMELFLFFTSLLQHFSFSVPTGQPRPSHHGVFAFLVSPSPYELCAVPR
Chain of CYP2C9 (P11712 whole entry): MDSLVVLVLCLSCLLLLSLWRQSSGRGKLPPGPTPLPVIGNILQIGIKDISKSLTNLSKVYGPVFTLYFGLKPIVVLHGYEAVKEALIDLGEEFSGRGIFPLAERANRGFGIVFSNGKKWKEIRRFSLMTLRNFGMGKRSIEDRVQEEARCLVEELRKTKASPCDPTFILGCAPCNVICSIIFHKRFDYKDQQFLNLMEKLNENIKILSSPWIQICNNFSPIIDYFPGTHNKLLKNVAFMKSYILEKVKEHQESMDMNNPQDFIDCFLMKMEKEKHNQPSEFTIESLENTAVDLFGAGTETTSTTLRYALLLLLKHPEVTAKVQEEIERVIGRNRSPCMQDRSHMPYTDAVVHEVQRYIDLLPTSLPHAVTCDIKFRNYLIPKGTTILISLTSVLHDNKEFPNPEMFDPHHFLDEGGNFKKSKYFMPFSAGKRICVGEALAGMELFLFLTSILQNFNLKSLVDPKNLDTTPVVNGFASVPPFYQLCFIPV

| Compound | IC50 (CYP1A2; [2]) | activity at 30 min (CYP1A2; [3]) | activity at 30 min (CYP2D6) | activity at 30 min (CYP3A4) | activity at 30 min (CYP2A6) | activity at 30 min (CYP2B6) | activity at 30 min (CYP2C9) | activity at 30 min (CYP2C19) | AUC(0-inf) ([1]; male, SD, in vivo, po) | AUC(0-t) ([1]; male, SD, in vivo, po) | Cmax ([1]; male, SD, in vivo, po) | Tmax ([1]; male, SD, in vivo, po) | AUM ([1]; male, SD, in vivo) | Cl_F_ ([1]; male, SD, in vivo) | Vz_F ([1]; male, SD, in vivo, po) | also measured |
| --- | --- | --- | --- | --- | --- | --- | --- | --- | --- | --- | --- | --- | --- | --- | --- | --- |
| CC(CC(=O)CC(C)C1CC(=O)C2(C)C3=C(C(=O)C(O)C12C)C1(C)CCC(=O)C(C)(CO)C1CC3O)C(=O)O (stereo not drawn) [Compound 3] | 14 ± 1.73 µM | 33 ± 4.08% | 76.5 ± 4.49% | 60.3 ± 3.06% | 79.9 ± 0.97% | 75.3 ± 4.16% | 87.3 ± 6.36% | 63.6 ± 7.83% | – | – | – | – | – | – | – | – |
| CC(=CC(=O)CC(C)C(=O)O)C1CC(=O)C2(C)C3=C(C(=O)CC12C)C1(C)CCC(=O)C(C)(C)C1CC3O (stereo not drawn) [Compound 51] | 38.6 ± 9.4 µM | 58 ± 2.08% | 89.5 ± 3.3% | 94.1 ± 7.18% | 86 ± 4.07% | 77.8 ± 7.96% | 99.8 ± 6.62% | 110 ± 3.54% | – | – | – | – | – | – | – | – |
| CC(CC(=O)CC(C)C1CC(O)C2(C)C3=C(C(=O)CC12C)C1(C)CCC(O)C(C)(CO)C1CC3=O)C(=O)O (stereo not drawn) [Compound 4] | 11.6 ± 1.02 µM | 29.1 ± 0.38% | 76.9 ± 6.89% | 67.6 ± 2.68% | 81.24 ± 0.65% | 97.5 ± 4.16% | 86.6 ± 1.3% | 57.82 ± 0.056% | – | – | – | – | – | – | – | – |
| CC(CC(=O)CC(C)C1CC(=O)C2(C)C3=C(C(=O)CC12C)C1(C)CCC(O)C(C)(C)C1CC3=O)C(=O)O (stereo not drawn) [Compound 55] | – | – | – | – | – | – | – | – | – | – | – | – | – | – | – | Residual activity (%) CYP1A2 (CYP1A2): 71.10±3.67%; Residual activity (%) CYP2D6 (CYP2D6): 86.79±5.16%; Residual activity (%) CYP2A6 (CYP2A6; HLM 0.5 mg/mL, coumarin 2 μM, 30 min): 74.81±0.70%; Residual activity (%) CYP2B6 (CYP2B6; HLM 0.5 mg/mL): 77.81±6.09%; Residual activity (%) CYP2C9 (CYP2C9; HLM 0.5 mg/mL): 96.25±6.96%; Residual activity (%) CYP2C19 (CYP2C19; HLM 0.5 mg/mL): 104.32±8.04% |
| Cc1ncc2n1-c1ccc(Cl)cc1C(c1ccccc1F)=NC2 [MDZ, midazolam] | – | – | – | – | – | – | – | – | 2340 ng·h/mL | 2300 ng·h/mL | 1630 ng/mL | 40 ± 7.74 min | – | – | – | AUM [1, 4]: 4,197.381 ± 670.735 h*ng/mL; Cl_F_ [1, 4]: 4,313.217 ± 497.661 mL/h/kg; Vz_F [1, 4]: 8,995.776 ± 2,395.823 mL/kg |
| O=C(O)Cc1ccccc1Nc1c(Cl)cccc1Cl [Dic, diclofenac] | – | – | – | – | – | – | – | – | 2350 ng·h/mL | 2270 ng·h/mL | 912 ± 68.1 ng/mL | 17.5 ± 6.12 min | 7,332.465 ± 1,560.101 h*ng/mL | 4,276.363 ± 388.068 mL/h/kg | 12,244.920 ± 1707.693 mL/kg | – |
| CC(CC(=O)CC(C)C1CC(=O)C2(C)C3=C(C(=O)CC12C)C1(C)CCC(O)C(C)(C)C1CC3=O)C(=O)O (stereo not drawn) [Compound 54] | – | – | – | – | 82.6 ± 2.79% | 84.1 ± 1.32% | 88.45 ± 0.51% | 88.3 ± 3.63% | – | – | – | – | – | – | – | Residual activity (%) CYP1A2 (CYP1A2): 47.09±3.09%; IC50 at 30 min (CYP1A2; human, human liver microsomes, pH 7.4, probe phenacetin 40 μM, IC50 against CYP 1A2, substrate phenacetin 40 μM, HLM): 24.7 ± 3.38 µM; Residual activity (%) CYP2D6 (CYP2D6): 108.69±3.90% |
| CC(CC(=O)CC(C)C1CC(O)C2(C)C3=C(C(=O)CC12C)C1(C)CCC(=O)C(C)(C)C1CC3=O)C(=O)O (stereo not drawn) [Compound 45] | 18.2 ± 1.33 µM | 48.2 ± 4.71% | 93.7 ± 8.49% | – | 90.1 ± 2.87% | 83 ± 3.05% | 73.5 ± 6.44% | 70.3 ± 4.05% | – | – | – | – | – | – | – | – |
| CCOc1ccc(NC(C)=O)cc1 [PHE, Phenacetin] | – | – | – | – | – | – | – | – | 352 ± 22.6 ng·h/mL | 342 ± 22.6 ng·h/mL | 364 ± 38.1 ng/mL | 37.5 ± 8.22 min | 692.744 ± 85.4782 ng·h/mL | 14,264.696 ± 912.942 mL/h/kg | 31,514.554 ± 6,298.860 mL/kg | – |
| CC(NC(C)(C)C)C(=O)c1cccc(Cl)c1 (stereo not drawn) [Bup, bupropion] | – | – | – | – | – | – | – | – | 5090 ng·h/mL | 4950 ng·h/mL | 1890 ± 154 ng/mL | 25 ± 7.74 min | 15,378.075 ± 3,089.500 h*ng/mL | 3,954.386 ± 375.228 mL/h/kg | 10,405.594 ± 1,602.189 mL/kg | – |
